Biological target: T1, aromatase (Callithrix jacchus, UniProt Q95M61)
T1 construct: gene CYP19A1; microsomal fraction of marmoset placenta
T1 sequence (Q95M61 1-503): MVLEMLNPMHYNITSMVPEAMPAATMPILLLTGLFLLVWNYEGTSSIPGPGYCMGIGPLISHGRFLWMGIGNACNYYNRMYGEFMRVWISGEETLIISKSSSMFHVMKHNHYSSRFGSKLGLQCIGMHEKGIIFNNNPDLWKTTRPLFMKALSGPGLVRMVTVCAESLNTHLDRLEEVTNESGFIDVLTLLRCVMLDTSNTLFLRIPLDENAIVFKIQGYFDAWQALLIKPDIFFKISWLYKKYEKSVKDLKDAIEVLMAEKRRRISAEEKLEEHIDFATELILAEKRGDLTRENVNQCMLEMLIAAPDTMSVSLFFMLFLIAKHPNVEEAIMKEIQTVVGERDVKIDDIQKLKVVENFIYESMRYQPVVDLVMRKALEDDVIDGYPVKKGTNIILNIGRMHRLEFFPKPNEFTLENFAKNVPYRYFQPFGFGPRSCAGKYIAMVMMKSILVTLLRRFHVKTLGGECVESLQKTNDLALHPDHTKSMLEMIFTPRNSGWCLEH
Test: inhibition of [[…]-14C]testosterone conversion by placental microsomes, TLC autoradiography
Format: biochemical

Cc1ccc(CN(c2ccc(C#N)cc2)n2cncn2)cc1 [iso-cetrozole]
IC50: 0.68 nM

Cc1ccc(CN(c2ccc(C#N)cc2)n2cnnc2)cc1 [cetrozole]
IC50: 0.98 nM

Cc1cccc(CN(c2ccc(C#N)cc2)n2cnnc2)c1 [meta-cetrozole]
IC50: 3.5 nM

Cc1ccc(CN(c2ccc([N+](=O)[O-])cc2)n2cnnc2)cc1 [nitro-cetrozole]
IC50: 0.73 nM

Source: publication PMC8654920, “PET imaging of brain aromatase in humans and rhesus monkeys by ^11C-labeled cetrozole analogs” (Scientific Reports, 2021)
